Among the data in PubChem BioAssay AID1963429 (Molecular Pharmacology Branch, DTP, NCI, 2024) are IC50 and viability, T/C values, retold here.

Usually IC50 stands for the point on the concentration scale where inhibition reaches its midpoint. What is called viability, T/C is the ratio of treated to control.

Values joined by “and” are separate entries in the source; they are usually repeats but may differ in a detail not shown here. Equal values may be shown once.

This experiment concerns 126254-015-R-J1-PDC complex spheroid growth, % test/control. In words: Anticancer human tumor 126254-015-R-J1-PDC patient-derived soft tissue sarcoma cell line growth inhibition [Asc]. To be noted: for viability, T/C: stronger effect = lower value. The gist of the method:
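Tumor cells were grown as multicellular spheroids with stromal HUVEC and mesenchymal stem cells and treated singly or in combination. Concentrations fell in half-log steps from the clinical Cmax, or from 10 microM where none was known.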
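Further: spheroids exposed to compound for seven days.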
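Wherever viability, T/C is given: 100% = DMSO vehicle control wells.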

Regarding `Cn1ncnc1[C@H]1c2n[nH]c(=O)c3cc(F)cc(c23)N[C@@H]1c1ccc(F)cc1` + CCN1C(C(=O)NC23CCC(C(=O)O)(CC2)CC3)C(c2cccc(Cl)c2F)C2(C(=O)Nc3cc(Cl)ccc32)C12CCCCC2, the IC50 runs as follows: (curve of first compound, second compound 0.03 µM) more than 100 nM; (curve of first compound, second compound 0.0949 µM) more than 100 nM; (curve of first compound, second compound 0.3 µM) more than 100 nM; (curve of first compound, second compound 0.949 µM) more than 100 nM; (curve of first compound, second compound 3 µM) more than 100 nM. The viability, T/C runs as follows: (second compound 0.03 µM, first compound 0.000316 µM) 88.6%; (second compound 0.03 µM, first compound 0.001 µM) 108%; (second compound 0.03 µM, first compound 0.00316 µM) 88%; (second compound 0.03 µM, first compound 0.01 µM) 96.5%; (second compound 0.03 µM, first compound 0.0316 µM) 83.9%; (second compound 0.03 µM, first compound 0.1 µM) 75.4%. The viability, T/C is, setting by setting: (second compound 0.0949 µM, first compound 0.000316 µM) 101%; (second compound 0.0949 µM, first compound 0.001 µM) 102%; (second compound 0.0949 µM, first compound 0.00316 µM) 88.4%; (second compound 0.0949 µM, first compound 0.01 µM) 78.2%; (second compound 0.0949 µM, first compound 0.0316 µM) 84.7%; (second compound 0.0949 µM, first compound 0.1 µM) 68%. Moreover, the viability, T/C is, setting by setting: (second compound 0.3 µM, first compound 0.000316 µM) 97%; (second compound 0.3 µM, first compound 0.001 µM) 111%; (second compound 0.3 µM, first compound 0.00316 µM) 104%; (second compound 0.3 µM, first compound 0.01 µM) 81.7%; (second compound 0.3 µM, first compound 0.0316 µM) 80.7%; (second compound 0.3 µM, first compound 0.1 µM) 75.2%. For the same compound, the viability, T/C (second compound 0.949 µM, first compound 0.000316 µM) was 95.3%; the viability, T/C (second compound 0.949 µM, first compound 0.001 µM) is 90.9%; the viability, T/C (second compound 0.949 µM, first compound 0.00316 µM) is 95.6%; the viability, T/C (second compound 0.949 µM, first compound 0.01 µM) is 86%; the viability, T/C (second compound 0.949 µM, first compound 0.0316 µM) was 95.8%; the viability, T/C (second compound 0.949 µM, first compound 0.1 µM) is 90.5%. Further, the viability, T/C reads like this: (second compound 3 µM, first compound 0.000316 µM) 96.3%; (second compound 3 µM, first compound 0.001 µM) 103%; (second compound 3 µM, first compound 0.00316 µM) 89.9%; (second compound 3 µM, first compound 0.01 µM) 84.8%; (second compound 3 µM, first compound 0.0316 µM) 82%; (second compound 3 µM, first compound 0.1 µM) 81.6%.
With `NC(=O)C(=Cn1cnc(-c2cc(C(F)(F)F)cc(C(F)(F)F)c2)n1)c1cncnc1`, the viability, T/C runs as follows: (compound 0.000949 µM) 104% and 107% and 110%; (compound 0.003 µM) 92.3% and 94% and 104%; (compound 0.00949 µM) 86.1% and 82.2% and 93.2%; (compound 0.03 µM) 63.4% and 58.5% and 84.6%; (compound 0.0949 µM) 33.2% and 34.4% and 57.5%; (compound 0.3 µM) 13.9% and 15.5% and 19.8%. In addition, the IC50 (curve of compound) was 49.9 nM and 45.6 nM and 121 nM.
On to `CNC(C)C(=O)NC1CN(S(=O)(=O)c2cccc(S(=O)(=O)N3CCC4CCC(C(=O)NC(c5ccccc5)c5ccccc5)N4C(=O)C(NC(=O)C(C)NC)C3)c2)CCC2CCC(C(=O)NC(c3ccccc3)c3ccccc3)N2C1=O` (centres undefined), for which the viability, T/C is 94.8% and 99.9% (compound 0.00316 µM); 86.8% [middle of 15 runs] (compound 0.01 µM); 76.6% [middle of 15 runs] (compound 0.0316 µM); 64.3% [middle of 15 runs] (compound 0.1 µM); 59.9% [middle of 15 runs] (compound 0.316 µM); 55.5% [middle of 15 runs] (compound 1 µM). Moreover, the IC50 by setting is: (compound alone, run of 10/03/2022) more than 1000 nM; (curve of compound) > 1000 nM and 845 nM.
Take `NC1CCC(NC2CC2c2ccccc2)CC1` (centres undefined): the viability, T/C reads like this: (compound 0.000316 µM) 96.7% and 95.9% and 95.3%; (compound 0.001 µM) 87.1% and 102% and 107%; (compound 0.00316 µM) 96.5% and 88.6% and 98%; (compound 0.01 µM) 92.1% and 90.5% and 103%; (compound 0.0316 µM) 90.3% and 85.1% and 100%; (compound 0.1 µM) 84.9% and 93% and 96.2%. The concentration for half-maximal inhibition (IC50) (curve of compound) was more than 100 nM.
Regarding `NC(=O)C(=Cn1cnc(-c2cc(C(F)(F)F)cc(C(F)(F)F)c2)n1)c1cncnc1` + CNC(C)C(=O)NC1CN(S(=O)(=O)c2cccc(S(=O)(=O)N3CCC4CCC(C(=O)NC(c5ccccc5)c5ccccc5)N4C(=O)C(NC(=O)C(C)NC)C3)c2)CCC2CCC(C(=O)NC(c3ccccc3)c3ccccc3)N2C1=O, the IC50 by setting is: (curve of first compound, second compound 0.01 µM) 61 nM; (curve of first compound, second compound 0.0316 µM) 24.4 nM; (curve of first compound, second compound 0.1 µM) 24.3 nM; (curve of first compound, second compound 0.316 µM) 16.8 nM; (curve of first compound, second compound 1 µM) 10.5 nM. Also, the viability, T/C is 85.8% (second compound 0.01 µM, first compound 0.000949 µM); 87.5% (second compound 0.01 µM, first compound 0.003 µM); 73% (second compound 0.01 µM, first compound 0.00949 µM); 64.7% (second compound 0.01 µM, first compound 0.03 µM); 41.6% (second compound 0.01 µM, first compound 0.0949 µM); 9.66% (second compound 0.01 µM, first compound 0.3 µM). For the same compound, the viability, T/C (second compound 0.0316 µM, first compound 0.000949 µM) is 80.4%; the viability, T/C (second compound 0.0316 µM, first compound 0.003 µM) was 77.7%; the viability, T/C (second compound 0.0316 µM, first compound 0.00949 µM) is 62.7%; the viability, T/C (second compound 0.0316 µM, first compound 0.03 µM) was 47.7%; the viability, T/C (second compound 0.0316 µM, first compound 0.0949 µM) was 25.9%; the viability, T/C (second compound 0.0316 µM, first compound 0.3 µM) is 9%. The viability, T/C reads like this: (second compound 0.1 µM, first compound 0.000949 µM) 58.2%; (second compound 0.1 µM, first compound 0.003 µM) 62.7%; (second compound 0.1 µM, first compound 0.00949 µM) 55.9%; (second compound 0.1 µM, first compound 0.03 µM) 48.9%; (second compound 0.1 µM, first compound 0.0949 µM) 23%; (second compound 0.1 µM, first compound 0.3 µM) 5.96%. The viability, T/C is 60% (second compound 0.316 µM, first compound 0.000949 µM); 60.8% (second compound 0.316 µM, first compound 0.003 µM); 54.7% (second compound 0.316 µM, first compound 0.00949 µM); 44% (second compound 0.316 µM, first compound 0.03 µM); 15.1% (second compound 0.316 µM, first compound 0.0949 µM); 3.45% (second compound 0.316 µM, first compound 0.3 µM). The viability, T/C was 51.9% (second compound 1 µM, first compound 0.000949 µM); 57.5% (second compound 1 µM, first compound 0.003 µM); 53.4% (second compound 1 µM, first compound 0.00949 µM); 35.8% (second compound 1 µM, first compound 0.03 µM); 18.8% (second compound 1 µM, first compound 0.0949 µM); 5.88% (second compound 1 µM, first compound 0.3 µM).
Turning to `CCN1CCN(Cc2ccc(Nc3ncc(F)c(-c4cc(F)c5nc(C)n(C(C)C)c5c4)n3)nc2)CC1`, the viability, T/C is, setting by setting: (compound 0.00316 µM) 99.2% and 102% (2×); (compound 0.01 µM) 104% and 97% and 96.8%; (compound 0.0316 µM) 109% (2×) and 99%; (compound 0.1 µM) 94.1% and 103% and 115%; (compound 0.316 µM) 114% and 110% and 112%; (compound 1 µM) 110% and 102% and 112%. For the same compound, the IC50 (curve of compound) is more than 1000 nM.
